Reference: ChEMBL document CHEMBL4411291, “Synthesis and anti-tumor activity of imidazopyrazines as TAK1 inhibitors” (Eur J Med Chem, 2019)
Activity calls are given as the source filed them. No cut-off for these calls is given here.

What was measured:
[1] = system: SK-CO-1; test: Growth inhibition of human SKCO1 cells after 96 hrs by SRB assay; type: functional, cell-based; settings: SK-CO-1, 96 h
[2] = target: Ribosomal protein S6 kinase alpha-1 (Homo sapiens) (UniProt Q15418); test: Inhibition of RPS6KA1 (unknown origin) at 1 uM by LanthaScreen Eu kinase binding assay relative to control
[3] = target: Tyrosine-protein kinase BTK (Homo sapiens) (UniProt Q06187); test: Inhibition of BTK (unknown origin) at 1 uM by LanthaScreen Eu kinase binding assay relative to control
[4] = Toxicity in CAnN.Cg-Foxnlnu/Crljbgi nude mouse xenografted with human SW620 cells at 100 mg/kg, po dosed daily for 14 consecutive days; type: organism-based; settings: in vivo
[5] = target: Mitogen-activated protein kinase 14 (Homo sapiens) (UniProt Q16539); test: Inhibition of […] (unknown origin) at 1 uM by LanthaScreen Eu kinase binding assay relative to control
[6] = Half life in ICR mouse at 8.2 mg/kg, po administered as single dose or 3 mg/kg, iv by LC-MS/MS analysis; type: ADME, organism-based; settings: in vivo
[7] = target: Inhibitor of nuclear factor kappa-B kinase subunit beta (Homo sapiens) (UniProt O14920); test: Inhibition of IKKbeta (unknown origin) at 1 uM by LanthaScreen Eu kinase binding assay relative to control
Chain of Inhibitor of nuclear factor kappa-B kinase subunit beta (Homo sapiens) (O14920 whole entry): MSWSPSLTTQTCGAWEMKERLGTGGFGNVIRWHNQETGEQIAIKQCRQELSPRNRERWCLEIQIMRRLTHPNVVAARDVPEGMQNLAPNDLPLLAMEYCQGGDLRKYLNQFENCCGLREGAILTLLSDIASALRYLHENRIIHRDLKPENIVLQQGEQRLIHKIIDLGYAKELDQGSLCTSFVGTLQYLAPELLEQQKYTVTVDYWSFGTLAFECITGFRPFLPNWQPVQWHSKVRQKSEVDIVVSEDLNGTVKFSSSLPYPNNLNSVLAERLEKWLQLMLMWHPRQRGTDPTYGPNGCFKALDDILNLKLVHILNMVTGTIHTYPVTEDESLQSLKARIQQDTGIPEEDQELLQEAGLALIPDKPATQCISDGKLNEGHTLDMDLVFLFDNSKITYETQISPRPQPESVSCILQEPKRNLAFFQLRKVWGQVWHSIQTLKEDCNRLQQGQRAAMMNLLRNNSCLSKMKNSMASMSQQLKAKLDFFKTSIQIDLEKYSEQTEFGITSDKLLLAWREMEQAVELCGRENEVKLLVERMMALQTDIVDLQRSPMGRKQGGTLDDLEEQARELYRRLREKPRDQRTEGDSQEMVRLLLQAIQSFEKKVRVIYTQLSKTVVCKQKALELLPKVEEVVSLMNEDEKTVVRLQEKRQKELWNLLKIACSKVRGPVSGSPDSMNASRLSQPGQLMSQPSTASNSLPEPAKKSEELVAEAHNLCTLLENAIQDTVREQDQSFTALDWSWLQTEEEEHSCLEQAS

[8] = target: High affinity nerve growth factor receptor (Homo sapiens) (UniProt P04629); test: Inhibition of NTRK1 (unknown origin) at 1 uM by LanthaScreen Eu kinase binding assay relative to control
Chain of High affinity nerve growth factor receptor (Homo sapiens) (P04629 33-796 limits assumed): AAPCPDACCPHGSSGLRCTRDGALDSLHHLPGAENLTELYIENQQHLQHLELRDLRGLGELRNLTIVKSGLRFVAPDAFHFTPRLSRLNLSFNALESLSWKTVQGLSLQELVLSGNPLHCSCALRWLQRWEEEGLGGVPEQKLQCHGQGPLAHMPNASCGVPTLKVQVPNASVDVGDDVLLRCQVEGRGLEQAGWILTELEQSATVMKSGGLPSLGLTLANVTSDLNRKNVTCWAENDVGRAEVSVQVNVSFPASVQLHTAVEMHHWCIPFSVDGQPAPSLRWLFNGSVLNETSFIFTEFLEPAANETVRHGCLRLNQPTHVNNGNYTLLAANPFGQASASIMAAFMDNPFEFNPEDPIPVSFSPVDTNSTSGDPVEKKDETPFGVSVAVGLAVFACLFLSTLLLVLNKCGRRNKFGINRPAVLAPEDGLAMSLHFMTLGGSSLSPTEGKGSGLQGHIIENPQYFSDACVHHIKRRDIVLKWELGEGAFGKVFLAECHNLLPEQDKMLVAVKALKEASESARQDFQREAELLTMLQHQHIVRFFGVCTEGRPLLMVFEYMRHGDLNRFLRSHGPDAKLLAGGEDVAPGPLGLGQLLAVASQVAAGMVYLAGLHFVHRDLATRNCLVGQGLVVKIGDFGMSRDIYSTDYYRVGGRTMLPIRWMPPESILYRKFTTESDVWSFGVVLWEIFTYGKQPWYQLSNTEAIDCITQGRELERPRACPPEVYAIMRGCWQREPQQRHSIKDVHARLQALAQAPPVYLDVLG

[9] = target: T1, Mitogen-activated protein kinase kinase kinase 7 (Homo sapiens) (UniProt O43318); test: Inhibition of TAK1 phosphorylation in human SW620 cells after 24 hrs by immunoblotting analysis; type: cell-based
T1 sequence (whole entry): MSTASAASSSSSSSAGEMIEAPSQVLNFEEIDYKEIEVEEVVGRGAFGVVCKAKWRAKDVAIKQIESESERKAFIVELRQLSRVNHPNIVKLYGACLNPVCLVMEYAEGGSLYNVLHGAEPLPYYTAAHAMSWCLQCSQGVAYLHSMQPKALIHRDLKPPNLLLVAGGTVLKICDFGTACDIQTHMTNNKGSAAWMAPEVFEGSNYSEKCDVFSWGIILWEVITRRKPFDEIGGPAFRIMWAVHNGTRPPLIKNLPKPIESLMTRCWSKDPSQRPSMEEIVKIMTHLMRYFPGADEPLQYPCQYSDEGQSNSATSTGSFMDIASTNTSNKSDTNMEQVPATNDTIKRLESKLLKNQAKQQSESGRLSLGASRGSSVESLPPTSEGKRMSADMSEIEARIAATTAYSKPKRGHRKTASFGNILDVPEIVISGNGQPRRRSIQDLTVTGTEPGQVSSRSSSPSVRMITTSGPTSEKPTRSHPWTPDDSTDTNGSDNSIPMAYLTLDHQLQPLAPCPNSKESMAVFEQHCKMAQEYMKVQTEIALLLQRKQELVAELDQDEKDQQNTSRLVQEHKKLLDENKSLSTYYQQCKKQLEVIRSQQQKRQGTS

[10] = target: Cytochrome P450 2C9 (Homo sapiens, UniProt P11712); test: Inhibition of CYP2C9 in liver microsomes (unknown origin) using sulfaphenazole as […] preincubated for 5 mins followed by NADPH addition and measured after 15 mins by LC-MS/MS analysis; type: ADME
[11] = target: Cytochrome P450 2C19 (Homo sapiens, UniProt P33261); test: Inhibition of CYP2C19 in liver microsomes (unknown origin) using (+/-) N-3-benzylnirvanol as […] preincubated for 5 mins followed by NADPH addition and measured after 15 mins by LC-MS/MS analysis; type: ADME
[12] = Stability in mouse liver microsomes assessed as parent compound remaining after 60 mins in presence of NADPH by HPLC analysis; type: ADME, Microsome; settings: read-out: Stability
[13] = Toxicity in CAnN.Cg-Foxnlnu/Crljbgi nude mouse xenografted with human SW620 cells assessed as weight loss at 100 mg/kg, po dosed daily for 14 consecutive days; type: organism-based; settings: in vivo
[14] = system: LoVo; test: Growth inhibition of human LoVo cells after 96 hrs by SRB assay; type: functional, cell-based
[15] = system: SW-620; test: Induction of apoptosis in human SW620 cells assessed as Caspase-3 activity at 10 uM after 24 hrs by Caspase-3/7 reagent-based fluorescence assay; type: functional, cell-based
[16] = Oral bioavailability in ICR mouse at 8.2 mg/kg administered as single dose by LC-MS/MS analysis; type: ADME, organism-based; settings: in vivo
[17] = target: T1, Mitogen-activated protein kinase kinase kinase 7 (Homo sapiens); test: Inhibition of TAK1 (unknown origin) at 0.1 uM by LanthaScreen Eu kinase binding assay relative to control
[18] = Stability in mouse plasma assessed as parent compound remaining after 6 hrs by LC-MS/MS analysis; type: ADME, cell-free; settings: read-out: Stability
[19] = Stability in human plasma assessed as parent compound remaining after 6 hrs by LC-MS/MS analysis; type: ADME, cell-free; settings: read-out: Stability
[20] = Cmax in ICR mouse at 8.2 mg/kg, po administered as single dose or 3 mg/kg, iv by LC-MS/MS analysis; type: ADME, organism-based; settings: in vivo
[21] = Stability in human liver microsomes assessed as parent compound remaining after 60 mins in presence of NADPH by HPLC analysis; type: ADME, Microsome; settings: read-out: Stability
[22] = target: CDK2/Cyclin A2 (Homo sapiens) (UniProt P24941+P20248); test: Inhibition of CDK2/cyclin A (unknown origin) at 1 uM by LanthaScreen Eu kinase binding assay relative to control; type: protein-complex assay
[23] = target: Glycogen synthase kinase-3 beta (Homo sapiens) (UniProt P49841); test: Inhibition of GSK3b (unknown origin) at 1 uM by LanthaScreen Eu kinase binding assay relative to control
[24] = target: Epidermal growth factor receptor (Homo sapiens) (UniProt P00533); test: Inhibition of EGFR (unknown origin) at 1 uM by LanthaScreen Eu kinase binding assay relative to control
Chain of Epidermal growth factor receptor (Homo sapiens) (P00533 whole entry): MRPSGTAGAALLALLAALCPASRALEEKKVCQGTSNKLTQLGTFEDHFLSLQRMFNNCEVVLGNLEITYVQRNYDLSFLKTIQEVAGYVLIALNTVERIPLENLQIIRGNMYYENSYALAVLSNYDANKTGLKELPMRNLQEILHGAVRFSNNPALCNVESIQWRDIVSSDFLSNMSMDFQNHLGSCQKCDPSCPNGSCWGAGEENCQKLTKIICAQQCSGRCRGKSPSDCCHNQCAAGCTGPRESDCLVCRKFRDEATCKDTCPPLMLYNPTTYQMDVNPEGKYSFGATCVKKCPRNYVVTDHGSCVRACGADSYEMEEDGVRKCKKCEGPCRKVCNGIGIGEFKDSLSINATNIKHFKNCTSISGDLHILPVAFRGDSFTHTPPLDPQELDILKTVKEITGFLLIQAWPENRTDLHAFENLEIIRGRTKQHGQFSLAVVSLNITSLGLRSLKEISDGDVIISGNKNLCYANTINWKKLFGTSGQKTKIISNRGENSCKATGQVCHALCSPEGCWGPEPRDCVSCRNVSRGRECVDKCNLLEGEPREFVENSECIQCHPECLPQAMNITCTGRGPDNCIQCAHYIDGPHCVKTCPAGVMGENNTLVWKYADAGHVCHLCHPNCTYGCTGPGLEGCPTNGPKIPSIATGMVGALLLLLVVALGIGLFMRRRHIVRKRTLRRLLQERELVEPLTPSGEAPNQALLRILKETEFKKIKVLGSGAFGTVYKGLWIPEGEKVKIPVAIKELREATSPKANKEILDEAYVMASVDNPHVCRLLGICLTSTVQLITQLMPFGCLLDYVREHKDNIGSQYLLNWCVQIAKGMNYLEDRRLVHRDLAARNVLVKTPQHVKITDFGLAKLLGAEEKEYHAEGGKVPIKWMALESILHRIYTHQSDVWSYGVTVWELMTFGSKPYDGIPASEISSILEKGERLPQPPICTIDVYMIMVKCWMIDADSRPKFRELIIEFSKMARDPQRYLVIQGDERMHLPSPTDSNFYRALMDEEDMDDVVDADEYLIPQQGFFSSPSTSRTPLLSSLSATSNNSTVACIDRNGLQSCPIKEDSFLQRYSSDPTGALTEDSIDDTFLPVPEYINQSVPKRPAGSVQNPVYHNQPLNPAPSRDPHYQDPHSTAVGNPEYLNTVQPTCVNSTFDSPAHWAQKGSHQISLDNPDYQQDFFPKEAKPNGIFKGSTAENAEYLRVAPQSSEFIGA

[25] = target: Platelet-derived growth factor receptor alpha (Homo sapiens) (UniProt P16234); test: Inhibition of PDGFRalpha (unknown origin) at 1 uM by LanthaScreen Eu kinase binding assay relative to control
[26] = target: Voltage-gated inwardly rectifying potassium channel KCNH2 (Homo sapiens, UniProt Q12809); test: Binding affinity to human ERG by fluorescence polarization assay
Chain of Voltage-gated inwardly rectifying potassium channel KCNH2 (Q12809 whole entry): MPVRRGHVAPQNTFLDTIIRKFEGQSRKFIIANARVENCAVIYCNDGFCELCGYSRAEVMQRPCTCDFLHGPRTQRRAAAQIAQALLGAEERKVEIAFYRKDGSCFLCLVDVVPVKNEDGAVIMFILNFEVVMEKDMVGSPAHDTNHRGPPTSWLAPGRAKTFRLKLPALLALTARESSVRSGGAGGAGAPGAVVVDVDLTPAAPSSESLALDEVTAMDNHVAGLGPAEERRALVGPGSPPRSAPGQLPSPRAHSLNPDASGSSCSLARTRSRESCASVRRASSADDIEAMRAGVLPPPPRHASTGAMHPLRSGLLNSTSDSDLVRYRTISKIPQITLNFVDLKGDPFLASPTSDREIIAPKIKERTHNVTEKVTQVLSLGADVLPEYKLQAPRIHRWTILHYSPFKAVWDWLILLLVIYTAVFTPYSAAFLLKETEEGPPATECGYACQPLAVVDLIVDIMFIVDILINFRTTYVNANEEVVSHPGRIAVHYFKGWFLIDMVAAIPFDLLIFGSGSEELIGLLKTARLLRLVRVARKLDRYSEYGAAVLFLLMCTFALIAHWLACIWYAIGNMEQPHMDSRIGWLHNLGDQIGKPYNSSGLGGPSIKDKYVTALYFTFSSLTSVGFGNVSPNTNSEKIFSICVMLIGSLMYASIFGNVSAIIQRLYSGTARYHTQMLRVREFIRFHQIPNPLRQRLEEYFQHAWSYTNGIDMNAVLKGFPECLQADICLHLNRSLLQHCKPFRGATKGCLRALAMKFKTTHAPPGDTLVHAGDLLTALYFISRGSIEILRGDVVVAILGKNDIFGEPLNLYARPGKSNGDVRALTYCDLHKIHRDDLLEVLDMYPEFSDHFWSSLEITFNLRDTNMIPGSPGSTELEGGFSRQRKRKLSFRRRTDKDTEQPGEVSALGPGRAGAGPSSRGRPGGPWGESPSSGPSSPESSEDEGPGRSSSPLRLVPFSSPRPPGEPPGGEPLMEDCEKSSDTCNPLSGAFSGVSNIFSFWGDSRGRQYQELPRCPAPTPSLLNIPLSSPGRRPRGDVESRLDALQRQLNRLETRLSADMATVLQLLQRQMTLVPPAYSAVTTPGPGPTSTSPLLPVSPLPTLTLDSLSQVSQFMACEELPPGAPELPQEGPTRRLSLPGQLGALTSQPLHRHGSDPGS

[27] = target: T1, Mitogen-activated protein kinase kinase kinase 7 (Homo sapiens); test: Inhibition of TAK1 (unknown origin) at 1 uM by LanthaScreen Eu kinase binding assay relative to control
[28] = AUC (0 to 7 hrs) in ICR mouse at 8.2 mg/kg, po administered as single dose or 3 mg/kg, iv by LC-MS/MS analysis; type: ADME, organism-based; settings: in vivo
[29] = system: SW-620; test: Antitumor activity against human SW620 cells xenografted in CAnN.Cg-Foxnlnu/Crljbgi nude mouse assessed as tumor growth inhibition at 100 mg/kg, po dosed daily for 14 consecutive days; type: functional, organism-based
[30] = target: Cytochrome P450 3A4 (Homo sapiens, UniProt P08684); test: Inhibition of CYP3A4 in liver microsomes (unknown origin) using ketoconazole as […] preincubated for 5 mins followed by NADPH addition and measured after 15 mins by LC-MS/MS analysis; type: ADME
Chain of Cytochrome P450 3A4 (P08684 whole entry, the tested form may be a part): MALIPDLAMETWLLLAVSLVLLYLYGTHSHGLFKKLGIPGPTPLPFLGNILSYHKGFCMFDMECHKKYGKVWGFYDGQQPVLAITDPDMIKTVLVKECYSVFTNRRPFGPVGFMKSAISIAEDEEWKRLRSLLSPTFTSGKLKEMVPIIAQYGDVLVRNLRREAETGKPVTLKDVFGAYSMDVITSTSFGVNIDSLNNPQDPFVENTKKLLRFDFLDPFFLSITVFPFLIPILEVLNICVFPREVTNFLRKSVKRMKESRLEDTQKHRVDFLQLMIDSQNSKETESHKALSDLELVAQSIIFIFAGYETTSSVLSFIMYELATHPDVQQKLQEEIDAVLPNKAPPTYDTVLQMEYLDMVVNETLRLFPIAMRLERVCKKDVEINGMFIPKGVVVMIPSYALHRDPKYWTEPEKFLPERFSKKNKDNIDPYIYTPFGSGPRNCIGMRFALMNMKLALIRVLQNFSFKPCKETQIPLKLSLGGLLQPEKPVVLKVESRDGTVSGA

[31] = target: TAK1/TAB1 (Homo sapiens, UniProt O43318); test: Inhibition of N-terminal His-tagged human TAK1 (1 to 303 amino acids)/human TAB1 (437 to 504 amino acids) expressed in baculovirus expression system using fluorescence-labeled substrate by off-chip mobility shift assay
[32] = target: Serine/threonine-protein kinase B-raf (Homo sapiens) (UniProt P15056); test: Inhibition of BRAF (unknown origin) at 1 uM by LanthaScreen Eu kinase binding assay relative to control
[33] = target: Cytochrome P450 1A2 (Homo sapiens, UniProt P05177); test: Inhibition of CYP1A2 in liver microsomes (unknown origin) using alpha-naphthoflavone as […] preincubated for 5 mins followed by NADPH addition and measured after 15 mins by LC-MS/MS analysis; type: ADME
Chain of Cytochrome P450 1A2 (P05177 whole entry): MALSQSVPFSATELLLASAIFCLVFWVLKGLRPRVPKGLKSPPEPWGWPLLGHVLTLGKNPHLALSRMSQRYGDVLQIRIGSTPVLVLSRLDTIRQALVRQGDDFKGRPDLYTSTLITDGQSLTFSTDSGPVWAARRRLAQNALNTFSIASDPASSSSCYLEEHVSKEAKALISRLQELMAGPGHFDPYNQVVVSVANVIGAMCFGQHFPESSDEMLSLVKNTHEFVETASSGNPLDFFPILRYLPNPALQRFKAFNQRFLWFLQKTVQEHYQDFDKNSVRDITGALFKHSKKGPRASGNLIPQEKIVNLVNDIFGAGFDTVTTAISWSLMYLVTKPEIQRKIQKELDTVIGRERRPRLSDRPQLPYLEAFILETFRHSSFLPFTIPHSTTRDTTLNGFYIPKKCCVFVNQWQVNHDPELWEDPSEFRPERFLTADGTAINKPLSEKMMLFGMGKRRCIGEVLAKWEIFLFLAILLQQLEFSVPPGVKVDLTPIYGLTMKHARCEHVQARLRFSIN

[34] = target: Cytochrome P450 2B6 (Homo sapiens, UniProt P20813); test: Inhibition of CYP2B6 in liver microsomes (unknown origin) using clopidogrel as […] preincubated for 5 mins followed by NADPH addition and measured after 15 mins by LC-MS/MS analysis; type: ADME
[35] = system: SW-620; test: Growth inhibition of human SW620 cells after 96 hrs by SRB assay; type: functional, cell-based; settings: SW-620, 96 h

## Cc1cc(NC(=O)Nc2cc(C(C)(C)C)nn2-c2ccccc2)ccc1-c1cnc(NC2CC2)c2nccn12
[1]
  IC50: 0.274 µM
[2]
  inhibition: 4%
[3]
  inhibition: 0%
[4]
  Activity: Non-Toxic
[5]
  inhibition: 82%
[6]
  half-life: 1.6 h
[7]
  inhibition: 0%
[8]
  inhibition: 82%
[9]
  inhibition: Dose-dependent effect
[10]
  IC50: 3.5 µM
[11]
  IC50: > 25 µM
[12]
  remaining at 1 h: 44%
[13]
  Activity: Non-Toxic
[14]
  IC50: 0.391 µM
[15]
  Activity: Active
[16]
  bioavailability: 25.2%
[17]
  inhibition: 56%
[18]
  remaining at 6 h: 88%
[19]
  remaining at 6 h: 90%
[20]
  Cmax: 1930 ng/mL
[21]
  remaining at 1 h: 37%
[22]
  inhibition: 1%
[23]
  inhibition: 51%
[24]
  inhibition: 45%
[25]
  inhibition: 88%
[26]
  IC50: > 50 µM
[27]
  inhibition: 98%
[28]
  AUC(0-t): 3140 ng·h/mL
[29]
  Activity: Active
[30]
  IC50: 3.52 µM
[31]
  IC50: 0.037 µM
[32]
  inhibition: 37%
[33]
  IC50: > 25 µM
[34]
  IC50: > 25 µM
[35]
  IC50: 0.33 µM
